# Laboratory results reported in PubChem BioAssay (NCI).
#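 Assay format: 96-well plates, 48-hour exposure. Definition used: TGI = concentration required for complete inhibition of growth.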
# Columns and labels:
# Experiment in all cases: NCI-60 cell line screen, 48 h
# 786-0 renal = system: 786-0 renal
# A498 renal = system: A498 renal
# A549 NSCLC = system: A549 NSCLC
# ACHN renal = system: ACHN renal
# CAKI-1 renal = system: CAKI-1 renal
# CCRF-CEM leukemia = system: CCRF-CEM leukemia
# COLO 205 colon = system: COLO 205 colon
# DU-145 prostate = system: DU-145 prostate
# EKVX NSCLC = system: EKVX NSCLC
# HCC-2998 colon = system: HCC-2998 colon
# HCT-116 colon = system: HCT-116 colon
# HCT-15 colon = system: HCT-15 colon
# HL-60(TB) leukemia = system: HL-60(TB) leukemia
# HOP-62 NSCLC = system: HOP-62 NSCLC
# HOP-92 NSCLC = system: HOP-92 NSCLC
# HT29 colon = system: HT29 colon
# IGROV1 ovarian = system: IGROV1 ovarian
# K-562 leukemia = system: K-562 leukemia
# KM12 colon = system: KM12 colon
# LOX IMVI melanoma = system: LOX IMVI melanoma
# M14 melanoma = system: M14 melanoma
# MALME-3M melanoma = system: MALME-3M melanoma
# MDA-MB-231 breast = system: MDA-MB-231 breast
# MDA-MB-435 = system: MDA-MB-435
# MDA-N = system: MDA-N
# MOLT-4 leukemia = system: MOLT-4 leukemia
# NCI-H226 lung = system: NCI-H226 lung
# NCI-H23 lung = system: NCI-H23 lung
# NCI-H460 lung = system: NCI-H460 lung
# NCI-H522 lung = system: NCI-H522 lung
# NCI/ADR-RES ovarian = system: NCI/ADR-RES ovarian
# OVCAR-3 ovarian = system: OVCAR-3 ovarian
# OVCAR-4 ovarian = system: OVCAR-4 ovarian
# OVCAR-5 ovarian = system: OVCAR-5 ovarian
# OVCAR-8 ovarian = system: OVCAR-8 ovarian
# PC-3 prostate = system: PC-3 prostate
# RXF 393 renal = system: RXF 393 renal
# SF-268 CNS = system: SF-268 CNS
# SF-295 CNS = system: SF-295 CNS
# SF-539 CNS = system: SF-539 CNS
# SK-MEL-2 melanoma = system: SK-MEL-2 melanoma
# SK-MEL-28 melanoma = system: SK-MEL-28 melanoma
# SK-MEL-5 melanoma = system: SK-MEL-5 melanoma
# SK-OV-3 ovarian = system: SK-OV-3 ovarian
# SN12C renal = system: SN12C renal
# SNB-19 CNS = system: SNB-19 CNS
# SNB-75 CNS = system: SNB-75 CNS
# SR leukemia = system: SR leukemia
# SW-620 colon = system: SW-620 colon
# T-47D breast = system: T-47D breast
# TK-10 renal = system: TK-10 renal
# U251 CNS = system: U251 CNS
# UACC-257 melanoma = system: UACC-257 melanoma
# UACC-62 melanoma = system: UACC-62 melanoma
# UO-31 renal = system: UO-31 renal
# HS 578T breast = system: HS 578T breast
# MCF7 breast = system: MCF7 breast
# RPMI-8226 leukemia = system: RPMI-8226 leukemia
structure (smiles),measurement,setting,value
O=c1c2ccccc2n2c(-c3ccc(O)cc3)nnc2n1-c1ccccc1,TGI,786-0 renal,33.7 µM
same,TGI,A498 renal,31.6 µM
same,TGI,A549 NSCLC,38.6 µM
same,TGI,ACHN renal,30 µM
same,TGI,CAKI-1 renal,65 µM
same,TGI,CCRF-CEM leukemia,51.3 µM
same,TGI,COLO 205 colon,> 100 µM
same,TGI,DU-145 prostate,40.1 µM
same,TGI,EKVX NSCLC,34.7 µM
same,TGI,HCC-2998 colon,> 100 µM
same,TGI,HCT-116 colon,41.2 µM
same,TGI,HCT-15 colon,50.7 µM
same,TGI,HL-60(TB) leukemia,> 100 µM
same,TGI,HOP-62 NSCLC,41 µM
same,TGI,HOP-92 NSCLC,45.6 µM
same,TGI,HT29 colon,43.9 µM
same,TGI,IGROV1 ovarian,34.9 µM
same,TGI,K-562 leukemia,26.2 µM
same,TGI,KM12 colon,> 100 µM
same,TGI,LOX IMVI melanoma,55.4 µM
same,TGI,M14 melanoma,39.8 µM
same,TGI,MALME-3M melanoma,42.6 µM
same,TGI,MDA-MB-231 breast,40.3 µM
same,TGI,MDA-MB-435,36.2 µM
same,TGI,MDA-N,34.1 µM
same,TGI,MOLT-4 leukemia,> 100 µM
same,TGI,NCI-H226 lung,53.6 µM
same,TGI,NCI-H23 lung,37.7 µM
same,TGI,NCI-H460 lung,40 µM
same,TGI,NCI-H522 lung,38.8 µM
same,TGI,NCI/ADR-RES ovarian,48.5 µM
same,TGI,OVCAR-3 ovarian,39.5 µM
same,TGI,OVCAR-4 ovarian,45.3 µM
same,TGI,OVCAR-5 ovarian,> 100 µM
same,TGI,OVCAR-8 ovarian,90.6 µM
same,TGI,PC-3 prostate,33.6 µM
same,TGI,RXF 393 renal,39.4 µM
same,TGI,SF-268 CNS,38.9 µM
same,TGI,SF-295 CNS,31.5 µM
same,TGI,SF-539 CNS,33.9 µM
same,TGI,SK-MEL-2 melanoma,40.9 µM
same,TGI,SK-MEL-28 melanoma,43.3 µM
same,TGI,SK-MEL-5 melanoma,37.2 µM
same,TGI,SK-OV-3 ovarian,38.3 µM
same,TGI,SN12C renal,32.2 µM
same,TGI,SNB-19 CNS,39.7 µM
same,TGI,SNB-75 CNS,38.5 µM
same,TGI,SR leukemia,46.2 µM
same,TGI,SW-620 colon,29.8 µM
same,TGI,T-47D breast,34.8 µM
same,TGI,TK-10 renal,43.5 µM
same,TGI,U251 CNS,32.4 µM
same,TGI,UACC-257 melanoma,41.8 µM
same,TGI,UACC-62 melanoma,38.9 µM
same,TGI,UO-31 renal,6.83 µM
CCOC(CNc1nn2c(C)nnc2s1)OCC,TGI,786-0 renal,> 100 µM
same,TGI,A498 renal,> 100 µM
same,TGI,A549 NSCLC,> 100 µM
same,TGI,ACHN renal,> 100 µM
same,TGI,CAKI-1 renal,> 100 µM
same,TGI,CCRF-CEM leukemia,> 100 µM
same,TGI,COLO 205 colon,> 100 µM
same,TGI,DU-145 prostate,> 100 µM
same,TGI,EKVX NSCLC,> 100 µM
same,TGI,HCC-2998 colon,> 100 µM
same,TGI,HCT-116 colon,> 100 µM
same,TGI,HCT-15 colon,> 100 µM
same,TGI,HL-60(TB) leukemia,> 100 µM
same,TGI,HOP-62 NSCLC,> 100 µM
same,TGI,HOP-92 NSCLC,> 100 µM
same,TGI,HS 578T breast,> 100 µM
same,TGI,HT29 colon,> 100 µM
same,TGI,IGROV1 ovarian,> 100 µM
same,TGI,K-562 leukemia,> 100 µM
same,TGI,KM12 colon,> 100 µM
same,TGI,LOX IMVI melanoma,> 100 µM
same,TGI,M14 melanoma,> 100 µM
same,TGI,MALME-3M melanoma,> 100 µM
same,TGI,MCF7 breast,> 100 µM
same,TGI,MDA-MB-231 breast,> 100 µM
same,TGI,MDA-MB-435,> 100 µM
same,TGI,MDA-N,> 100 µM
same,TGI,MOLT-4 leukemia,> 100 µM
same,TGI,NCI-H226 lung,> 100 µM
same,TGI,NCI-H23 lung,> 100 µM
same,TGI,NCI-H460 lung,> 100 µM
same,TGI,NCI-H522 lung,> 100 µM
same,TGI,NCI/ADR-RES ovarian,> 100 µM
same,TGI,OVCAR-3 ovarian,> 100 µM
same,TGI,OVCAR-4 ovarian,> 100 µM
same,TGI,OVCAR-5 ovarian,> 100 µM
same,TGI,OVCAR-8 ovarian,> 100 µM
same,TGI,PC-3 prostate,> 100 µM
same,TGI,RPMI-8226 leukemia,> 100 µM
same,TGI,RXF 393 renal,> 100 µM
same,TGI,SF-268 CNS,> 100 µM
same,TGI,SF-295 CNS,> 100 µM
same,TGI,SF-539 CNS,> 100 µM
same,TGI,SK-MEL-2 melanoma,> 100 µM
same,TGI,SK-MEL-28 melanoma,> 100 µM
same,TGI,SK-MEL-5 melanoma,> 100 µM
same,TGI,SK-OV-3 ovarian,> 100 µM
same,TGI,SN12C renal,> 100 µM
same,TGI,SNB-19 CNS,> 100 µM
same,TGI,SNB-75 CNS,> 100 µM
same,TGI,SR leukemia,> 100 µM
same,TGI,SW-620 colon,> 100 µM
same,TGI,TK-10 renal,> 100 µM
same,TGI,U251 CNS,> 100 µM
same,TGI,UACC-257 melanoma,> 100 µM
same,TGI,UACC-62 melanoma,> 100 µM
COC1=CC(=O)c2c(cc(COP(N)(=O)N(CCBr)CCBr)n2C)C1=O (stereo not drawn),TGI,A498 renal,2.88 µM
same,TGI,A549 NSCLC,1.71 µM
same,TGI,ACHN renal,0.0219 µM
same,TGI,CCRF-CEM leukemia,0.771 µM
same,TGI,COLO 205 colon,0.144 µM
same,TGI,DU-145 prostate,1.41 µM
same,TGI,EKVX NSCLC,0.207 µM
same,TGI,HCT-116 colon,0.131 µM
same,TGI,HCT-15 colon,2.5 µM
same,TGI,HL-60(TB) leukemia,3.64 µM
same,TGI,HT29 colon,1.05 µM
same,TGI,IGROV1 ovarian,2.8 µM
same,TGI,K-562 leukemia,> 100 µM
same,TGI,KM12 colon,4.72 µM
same,TGI,LOX IMVI melanoma,0.121 µM
same,TGI,M14 melanoma,0.633 µM
same,TGI,MALME-3M melanoma,1.86 µM
same,TGI,MCF7 breast,16.1 µM
same,TGI,MDA-MB-231 breast,7.1 µM
same,TGI,MDA-MB-435,2.42 µM
same,TGI,MDA-N,2.24 µM
same,TGI,MOLT-4 leukemia,> 100 µM
same,TGI,NCI-H226 lung,1.17 µM
same,TGI,NCI-H23 lung,2.67 µM
same,TGI,NCI-H460 lung,5.38 µM
same,TGI,NCI-H522 lung,0.188 µM
same,TGI,NCI/ADR-RES ovarian,7.86 µM
same,TGI,OVCAR-3 ovarian,0.651 µM
same,TGI,OVCAR-4 ovarian,10.5 µM
same,TGI,OVCAR-5 ovarian,1.06 µM
same,TGI,OVCAR-8 ovarian,1.2 µM
same,TGI,PC-3 prostate,4.62 µM
same,TGI,RPMI-8226 leukemia,1.16 µM
same,TGI,RXF 393 renal,1.49 µM
same,TGI,SF-268 CNS,1.8 µM
same,TGI,SF-295 CNS,0.225 µM
same,TGI,SF-539 CNS,0.133 µM
same,TGI,SK-MEL-2 melanoma,3.57 µM
same,TGI,SK-MEL-28 melanoma,3.1 µM
same,TGI,SK-MEL-5 melanoma,2.2 µM
same,TGI,SK-OV-3 ovarian,1.15 µM
same,TGI,SN12C renal,1.08 µM
same,TGI,SNB-19 CNS,8.28 µM
same,TGI,SNB-75 CNS,1.19 µM
same,TGI,SR leukemia,1.6 µM
same,TGI,SW-620 colon,1.48 µM
same,TGI,T-47D breast,2.98 µM
same,TGI,TK-10 renal,3.43 µM
same,TGI,U251 CNS,0.859 µM
same,TGI,UACC-257 melanoma,4.44 µM
same,TGI,UACC-62 melanoma,1.47 µM
same,TGI,UO-31 renal,3.66 µM
